Results: the supplement of paper PMC10307832

Columns and labels:
Experiment in all cases: relative viability (nuclei count vs DMSO), 5 days (fraction); higher = more cells survive
[1] = compound: CN(c1ncccc1CNc1nc(Nc2ccc3c(c2)CC(=O)N3)ncc1C(F)(F)F)S(C)(=O)=O + COc1cc2c(Oc3ccc(NC(=O)C4(C(=O)Nc5ccc(F)cc5)CC4)cc3F)ccnc2cc1OCCCN1CCOCC1 [Foretinib] (partner 0.25 µM)
In short: (§1)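 Lung cancer cell lines were seeded in 1536-well plates and dosed by pin tool the next day, with either a single drug or a fixed anchor-drug dose combined with five library-drug doses (not always all listed) spaced in √10 steps. Five days later, one step fixed the cells and stained their nuclei (final 0.05% Triton X-100, 1% formaldehyde, 1 ug/ml Hoechst), and nuclei were counted on 4× images. Relative viability is the nuclei count in treated wells divided by the count in vehicle wells, and each value is the median of duplicate plates.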

[2] = compound: CN(c1ncccc1CNc1nc(Nc2ccc3c(c2)CC(=O)N3)ncc1C(F)(F)F)S(C)(=O)=O + NC(=O)Nc1cc(-c2cccc(F)c2)sc1C(=O)N[C@H]1CCCNC1 [AZD7762] (partner 0.2 µM)
In short: as §1

[3] = compound: CN(c1ncccc1CNc1nc(Nc2ccc3c(c2)CC(=O)N3)ncc1C(F)(F)F)S(C)(=O)=O + O=C(CCCCCCC(=O)Nc1ccccc1)NO [Vorinostat] (partner 1 µM)
In short: as §1

[4] = compound: CN(c1ncccc1CNc1nc(Nc2ccc3c(c2)CC(=O)N3)ncc1C(F)(F)F)S(C)(=O)=O + CS(=O)(=O)N1CCN(Cc2cc3nc(-c4cccc5[nH]ncc45)nc(N4CCOCC4)c3s2)CC1 [Pictilisib] (partner 1 µM)
In short: as §1

| Cell Line | relative viability ([1]; first compound 0.01 µM) | relative viability ([1]; first compound 0.03162 µM) | relative viability ([1]; first compound 0.1 µM) | relative viability ([1]; first compound 0.3162 µM) | relative viability ([1]; first compound 1 µM) | relative viability ([2]; first compound 0.01 µM) | relative viability ([2]; first compound 0.03162 µM) | relative viability ([2]; first compound 0.1 µM) | relative viability ([2]; first compound 0.3162 µM) | relative viability ([2]; first compound 1 µM) | relative viability ([3]; first compound 0.01 µM) | relative viability ([3]; first compound 0.03162 µM) | relative viability ([3]; first compound 0.1 µM) | relative viability ([3]; first compound 0.3162 µM) | relative viability ([3]; first compound 1 µM) | relative viability ([4]; first compound 0.01 µM) | relative viability ([4]; first compound 0.03162 µM) | relative viability ([4]; first compound 0.1 µM) | relative viability ([4]; first compound 0.3162 µM) | relative viability ([4]; first compound 1 µM) |
| --- | --- | --- | --- | --- | --- | --- | --- | --- | --- | --- | --- | --- | --- | --- | --- | --- | --- | --- | --- | --- |
| NCI-H1975 | 0.962 | 0.984 | 0.959 | 0.84 | 0.929 | 0.85 | 0.839 | 0.822 | 0.645 | 0.755 | 0.726 | 0.688 | 0.666 | 0.71 | 0.613 | 0.278 | 0.282 | 0.337 | 0.268 | 0.281 |
| NCI-H1437 | 1.31 | 1.2 | 1.21 | 1.11 | 0.988 | 1.12 | 1.17 | 1.15 | 1.08 | 1.07 | 0.763 | 0.846 | 0.697 | 0.597 | 0.414 | 0.424 | 0.468 | 0.557 | 0.41 | 0.546 |
| NCI-H1651 | 0.817 | 0.88 | 0.906 | 0.765 | 0.784 | 0.507 | 0.469 | 0.488 | 0.534 | 0.484 | 0.565 | 0.566 | 0.535 | 0.568 | 0.571 | 0.523 | 0.617 | 0.601 | 0.596 | 0.546 |
| LCLC-103H | 0.677 | 0.751 | 0.765 | 0.766 | 0.759 | 0.72 | 0.711 | 0.734 | 0.745 | 0.815 | 0.852 | 0.725 | 0.732 | 0.771 | 0.769 | 0.558 | 0.561 | 0.6 | 0.536 | 0.577 |
| NCI-H1666 | 0.977 | 0.874 | 0.851 | 0.976 | 0.843 | 0.978 | 0.834 | 0.838 | 0.932 | 0.847 | 1.07 | 0.94 | 0.926 | 0.758 | 0.767 | 0.549 | 0.373 | 0.404 | 0.532 | 0.404 |
| NCI-H1734 | 0.93 | 0.911 | 0.796 | 0.828 | 0.712 | 0.55 | 0.659 | 0.667 | 0.782 | 0.742 | 0.809 | 0.818 | 0.799 | 0.8 | 0.781 | 0.418 | 0.555 | 0.454 | 0.468 | 0.475 |
| EPLC-272H | 0.569 | 0.776 | 0.727 | 0.844 | 0.69 | 0.273 | 0.174 | 0.211 | 0.331 | 0.291 | 0.546 | 0.23 | 0.408 | 0.564 | 0.263 | 0.256 | 0.269 | 0.298 | 0.209 | 0.336 |
| BEN | 0.815 | 0.608 | 0.618 | 0.587 | 0.845 | 0.721 | 0.709 | 0.73 | 0.774 | 0.563 | 0.546 | 0.625 | 0.578 | 0.544 | 0.554 | 0.595 | 0.585 | 0.512 | 0.594 | 0.703 |
| ABC-1 | 1.11 | 1.2 | 1.01 | 0.92 | 0.936 | 0.838 | 0.86 | 0.825 | 0.803 | 1.08 | 1.02 | 0.948 | 1.28 | 1.11 | 1.27 | 0.74 | 0.822 | 0.746 | 0.952 | 0.847 |
| HCC-15 | 0.968 | 1.06 | 0.963 | 0.951 | 0.916 | 1.31 | 1.39 | 1.04 | 1.23 | 1.21 | 0.79 | 0.796 | 0.741 | 0.77 | 0.675 | 0.817 | 0.68 | 0.711 | 0.716 | 0.622 |
| NCI-H2170 | 1.02 | 1.02 | 1.01 | 1.02 | 0.949 | 0.942 | 1.02 | 0.794 | 0.96 | 0.914 | 0.817 | 0.882 | 0.836 | 0.832 | 0.859 | 0.355 | 0.312 | 0.316 |  | 0.332 |
| PC-3 [JPC-3] | 1.07 | 1.03 | 0.999 | 1.04 | 0.929 | 0.851 |  | 0.848 | 0.948 | 1.03 | 0.826 |  | 0.775 | 0.795 | 0.753 | 0.747 | 0.723 | 0.75 | 0.782 | 0.71 |
| NCI-H1993 | 0.692 | 0.994 | 0.744 | 0.75 | 0.767 | 0.852 | 0.837 | 0.836 | 0.634 | 0.737 | 0.831 | 0.773 | 0.805 | 0.709 | 0.577 | 0.832 | 0.754 | 0.856 | 0.828 | 0.775 |
| NCI-H358 | 0.717 | 0.659 | 0.782 | 0.638 | 0.517 | 0.552 | 0.553 | 0.381 | 0.533 | 0.339 | 0.65 | 0.704 | 0.692 | 0.573 | 0.421 | 0.276 | 0.351 | 0.275 | 0.347 | 0.243 |
| NCI-H1915 | 1.13 | 1.06 | 1.04 | 1.12 | 1.04 | 0.762 | 0.654 | 0.696 | 0.703 | 0.76 | 0.535 | 0.534 | 0.593 | 0.536 | 0.519 | 1.01 | 0.826 | 0.905 | 1.01 | 0.939 |
| RERF-LC-KJ | 0.867 | 1.03 | 0.861 | 0.843 | 0.939 | 0.89 | 1.08 | 1.03 | 1.04 | 1.07 | 0.643 | 0.78 | 0.692 | 0.728 | 0.603 | 0.494 | 0.577 | 0.551 | 0.548 | 0.622 |
